From US20190307820A1, “COMPOSITIONS AND METHODS OF USING STAT1/3 INHIBITORS WITH ONCOLYTIC HERPES VIRUS” (priority 2016, published 2019)

How the values were obtained:
pSTAT3 (Tyr705) = assay: Western blot of pSTAT3 (Tyr705) in BV2 microglia cells; assay type: cell-based, mouse; details: C16 1 μM
Experimental: BV2 cells were pre-treated with vehicle or C16 (1 μM) for 2 hours and then incubated with vehicle or oHSV-1 (G207) at an MOI of 1 or oHSV-1 and C16 combination for 24 hours. Total protein was harvested and subjected to western blot assay. β-actin expression was used for loading control (means±SE).
BV2 cells were treated with either vehicle or Lps (1 μg/ml) or Lps (1 μg/ml) with C16 (1 μM) for 24 hours. Total protein was harvested and subjected to western blot assay. β-actin expression was used for loading control (means±SE).
Total protein was harvested with sample buffer (125 mM Tris-HCL, 50% Glycerol, […] and 5% 2-mercaptoethanol) and boiled for 5 minutes. Protein samples were subjected to SDS-PAGE (8% gel), transferred to nitrocellulose membranes and blocked in 5% nonfat milk (Bio Rad) in TBS-Tween 20 (TBS-T) for 1 hour at room temperature. […] Band density was measured by using ImageJ software (NIH, Bethesda, Md.).

MCF7 cells = assay: MTT cytotoxicity assay, MCF7 cells; assay type: cell-based; details: Homo sapiens, 72 hours, read-out: Inhibitory concentration 50% (IC50)
Experimental: FIGS. 1A-1B are graphs that show an anti-tumor effect of nifuroxazide. (FIG. 1A) Cells were treated with indicated concentration of nifuroxazide for 72 hours. Cytotoxicity was measured by using MTT assay. (FIG. 1B) Subcutaneously U87 tumor bearing mice were peritoneally injected with indicated doses of nifuroxazide. Tumor size was measured using calipers at day 7 post nifuroxazide treatment.
In this example, the antitumor effect of nifuroxazide is evaluated in different tumor cells. Cells were treated with nifuroxazide for 72 hours (FIG. 1A). […] To verify the anti-tumor efficacy of nifuroxazide in vivo, animals with subcutaneous U87 tumor implants were injected in the peritoneum with vehicle, 1 mg/kg nifuroxazide and 50 mg/kg nifuroxazide. […] Tumor volume was reduced around 25% and 60% after 7 days treatment with 1 mg/kg nifuroxazide and 50 mg/kg nifuroxazide respectively (FIG. 1B).
Cells were seeded in a 96-well plate at a density of 1×104 (U87). After overnight incubation, cells were treated with only vehicle or indicated MOI of virus or indicated concentration of drugs or reagents. After 2 to 3 days of treatment cell viability was measured by MTT assay (Sigma, Canada) according to the manufacturer's instruction. […] After overnight incubation with lysis buffer, cell viability was measured at 595 nm using a plate reader (Envision 2103 Multilabel reader, Perkin Elmer).

STAT3 = biological target: T1, STAT3 (Mus musculus, UniProt P42227); assay: Western blot of STAT3 phosphorylation in CT26 cells; assay type: cell-based; details: 24 hours
T1 construct: Total protein was extracted after 24 hours and subjected to western blot analysis; endogenous in cells; host or cells: CT26 cells, with or without HrR3 infection
Experimental: FIG. 19A and FIG. 19B, U87 cells (A) or CT26 cells (B) were treated with the indicated concentrations of HrR3 or NF or a combination. Total protein was extracted after 24 hours and subjected to western blot analysis. Band intensity was measured using Image J software and normalized to β-actin. Samples were run in triplicate and data are as means±S.E. Statistically significant differences are indicated by P<0.05 or P<0.01. FIG. 19C, Mice subcutaneously bearing U87 tumors were intratumorally injected with a single dose of HrR3 virus (1×10^6 PFU) and/or peritoneally injected doses of NF as indicated. Tumors were harvested on day 10 post treatment and total protein was extracted from a mouse of each treatment group and subjected to western blot analysis in triplicate. Results are reported as means±S.E.
NF is a known inhibitor of STAT1 and STAT3. To evaluate the underlying molecular mechanism of the anti-tumour effect of the NF and oHSV-1 combination, the STAT1 and STAT3 status in U87 cells (FIG. 19A) and CT26 cells (FIG. 19B) cells was determined after an overnight treatment with NF and oncolytic viruses.

T1 sequence (P42227 whole entry): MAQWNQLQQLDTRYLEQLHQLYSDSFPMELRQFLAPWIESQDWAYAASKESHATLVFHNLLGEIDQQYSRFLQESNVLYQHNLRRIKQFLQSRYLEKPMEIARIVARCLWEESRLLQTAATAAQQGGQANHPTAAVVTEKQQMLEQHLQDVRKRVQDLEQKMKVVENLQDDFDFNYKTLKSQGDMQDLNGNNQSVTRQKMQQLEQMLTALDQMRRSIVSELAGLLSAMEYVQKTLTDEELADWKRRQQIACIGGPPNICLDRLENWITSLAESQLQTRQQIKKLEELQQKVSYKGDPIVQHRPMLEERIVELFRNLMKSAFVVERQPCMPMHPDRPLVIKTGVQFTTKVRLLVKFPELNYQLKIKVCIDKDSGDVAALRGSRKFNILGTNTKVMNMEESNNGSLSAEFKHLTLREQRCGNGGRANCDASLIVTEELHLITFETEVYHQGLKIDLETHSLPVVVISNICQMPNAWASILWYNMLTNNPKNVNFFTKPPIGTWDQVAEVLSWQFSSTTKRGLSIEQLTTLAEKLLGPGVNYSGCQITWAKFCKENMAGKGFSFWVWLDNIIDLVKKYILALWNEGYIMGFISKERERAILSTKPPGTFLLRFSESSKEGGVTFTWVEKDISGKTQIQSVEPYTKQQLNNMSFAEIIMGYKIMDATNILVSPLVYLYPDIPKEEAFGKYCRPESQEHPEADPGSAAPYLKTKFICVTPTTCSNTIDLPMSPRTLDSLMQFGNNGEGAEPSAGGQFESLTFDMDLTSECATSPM

Compound | upregulation of pSTAT3 (Tyr705) induced by oHSV-1 (pSTAT3 (Tyr705); G207 MOI of 1, 24 hours) | STAT 3 phosphorylation, LPS treated (pSTAT3 (Tyr705); Lps 1 μg/ml, 24 hours) | IC50 (MCF7 cells) | HrR3 induced upregulation of STAT3 phosphorylation (STAT3) | phosphorylation of STAT3 (STAT3; NF alone)
O=C1Nc2ccc3ncsc3c2/C1=C/c1c[nH]cn1 [C16, 6,8-Dihydro-8-(1H-imidazol-5-ylmethylene)-7H-pyrrolo[2,3-g]benzothiazol-7-one] | significantly suppress the upregulation | inhibition in STAT 1/3 phosphorylation | – | – | –
O=C(N/N=C/c1ccc([N+](=O)[O-])o1)c1ccc(O)cc1 [nifuroxazide, Benzoic acid, 4-hydroxy-, [(5-nitro-2-furanyl)metylene]hydrazide] | – | – | ~20 µM | effectively suppressed | dose dependent inhibition
